# System: moderate-to-severe chronic spontaneous urticaria (CSU)
# Assay: Phase 2 CSU study: urticaria activity score over 7 days (UAS7)
# Format: in vivo, human
# Settings: Omalizumab-naïve, 400 mg QPM
# Text: The study comprises a 12 week, randomized, double-blind, placebo-controlled, multi-center, dose-ranging efficacy and safety phase, followed by a 40 week open label extension (OLE) phase (see FIG. 1). The study consists of three phases and an optional OLE phase. […] Clinically, CSU is characterized by the spontaneous and recurrent appearance of pruritic hives. The proposed primary endpoints were the UAS7 at Week 12 in EU and EU reference countries and the ISS7 in the US. Regardless of where a participant was from, all assessments were the same. The UAS7 score is a composite score containing both the HSS7 and the ISS7. This allowed a global assessment of the two key components of urticaria: hives and itch. […] The UAS is a validated PRO measure. […] The daily UAS scores range from 0 to 6 point/day. […] Patients were to complete the UAS using the e-diary. […] The following secondary endpoints were to be analyzed using the same approach as for the primary endpoint: • Change from baseline in UAS7 at Week 4 • Change from baseline in UAS7 at Week 12 (for US and US reference countries) • Change from baseline in ISS7 at Week 12 (except US and US reference countries) • Change from baseline in HSS7 at Week 12 The following responder secondary endpoints were to be analyzed using the Cochran-Mantel-Haenszel test adjusted by region: • Proportion of participants with UAS7<6 at Week 12 • Proportion of participants with UAS7=0 at Week 12 Participants who received selected prohibited medications and/or rescue medications were to be considered as non-responders for time points after the medication usage. For other participants, all available data including those collected during the off-treatment period were to be used to determine the responder/non-responder status. Missing data were to be considered as non-responders.
smiles,measurement,setting,value
"CC(C)(C=C(C#N)C(=O)N1CCC[C@@H](n2nc(-c3ccc(Oc4ccccc4)cc3F)c3c(N)ncnc32)C1)N1CCN(C2COC2)CC1 [rilzabrutinib, (R)-2-[3-[4-amino-3-(2-fluoro-4-phenoxy-phenyl)pyrazolo[3,4-d]pyrimidin-1-yl]piperidine-1-carbonyl]-4-methyl-4-[4-(oxetan-3-yl)piperazin-1-yl]pent-2-enenitrile]","Non-responder n (%), UAS7 ≤6",Week 1,35 (94.6) n (%)
same,"OR for rilzabrutinib vs. placebo, UAS7 = 0",Week 1,"0.000 (NE,"
same,"RRD (%) for rilzabrutinib vs. placebo, UAS7 = 0",Week 1,−2.9 %
same,"RRD (%) for rilzabrutinib vs. placebo, UAS7 ≤6",Week 1,−0.0%
same,"Responder n (%), UAS7 = 0",Week 1,0 n (%)
same,"Responder n (%), UAS7 ≤6",Week 1,2 (5.4) n (%)
same,"Imputed non-responder n (%), UAS7 = 0",Week 2,0 n (%)
same,"Imputed non-responder n (%), UAS7 ≤6",Week 2,0 n (%)
same,"Non-responder n (%), UAS7 = 0",Week 2,37 (100) n (%)
same,"Non-responder n (%), UAS7 ≤6",Week 2,36 (97.3) n (%)
same,"OR for rilzabrutinib vs. placebo, UAS7 = 0",Week 2,"0.000 (NE,"
same,"OR for rilzabrutinib vs. placebo, UAS7 ≤6",Week 2,0.489
same,"RRD (%) for rilzabrutinib vs. placebo, UAS7 = 0",Week 2,−2.9 %
same,"RRD (%) for rilzabrutinib vs. placebo, UAS7 ≤6",Week 2,−2.7%
same,"Responder n (%), UAS7 = 0",Week 2,0 n (%)
same,"Responder n (%), UAS7 ≤6",Week 2,1 (2.7) n (%)
same,"Imputed non-responder n (%), UAS7 = 0",Week 3,0 n (%)
same,"Imputed non-responder n (%), UAS7 ≤6",Week 3,0 n (%)
same,"Non-responder n (%), UAS7 = 0",Week 3,37 (100) n (%)
same,"Non-responder n (%), UAS7 ≤6",Week 3,35 (94.6) n (%)
same,"OR for rilzabrutinib vs. placebo, UAS7 = 0",Week 3,"0.000 (NE,"
same,"OR for rilzabrutinib vs. placebo, UAS7 ≤6",Week 3,0.666
same,"RRD (%) for rilzabrutinib vs. placebo, UAS7 = 0",Week 3,−2.9 %
same,"RRD (%) for rilzabrutinib vs. placebo, UAS7 ≤6",Week 3,−2.5%
same,"Responder n (%), UAS7 = 0",Week 3,0 n (%)
same,"Responder n (%), UAS7 ≤6",Week 3,2 (5.4) n (%)
same,"Imputed non-responder n (%), UAS7 = 0",Week 4,1 (2.7) n (%)
same,"Imputed non-responder n (%), UAS7 ≤6",Week 4,1 (2.7) n (%)
same,"Non-responder n (%), UAS7 = 0",Week 4,37 (100) n (%)
same,"Non-responder n (%), UAS7 ≤6",Week 4,35 (94.6) n (%)
same,"OR for rilzabrutinib vs. placebo, UAS7 = 0",Week 4,"0.000 (NE,"
same,"OR for rilzabrutinib vs. placebo, UAS7 ≤6",Week 4,0.486
same,"RRD (%) for rilzabrutinib vs. placebo, UAS7 = 0",Week 4,−5.3 %
same,"RRD (%) for rilzabrutinib vs. placebo, UAS7 ≤6",Week 4,−5.0%
same,"Responder n (%), UAS7 = 0",Week 4,0 n (%)
same,"Responder n (%), UAS7 ≤6",Week 4,2 (5.4) n (%)
same,"Imputed non-responder n (%), UAS7 = 0",Week 5,2 (5.4) n (%)
same,"Imputed non-responder n (%), UAS7 ≤6",Week 5,2 (5.4) n (%)
same,"Non-responder n (%), UAS7 = 0",Week 5,36 (97.3) n (%)
same,"Non-responder n (%), UAS7 ≤6",Week 5,35 (94.6) n (%)
same,"OR for rilzabrutinib vs. placebo, UAS7 = 0",Week 5,0.923
same,"OR for rilzabrutinib vs. placebo, UAS7 ≤6",Week 5,0.986
same,"RRD (%) for rilzabrutinib vs. placebo, UAS7 = 0",Week 5,−0.2 %
same,"RRD (%) for rilzabrutinib vs. placebo, UAS7 ≤6",Week 5,−0.1%
same,"Responder n (%), UAS7 = 0",Week 5,1 (2.7) n (%)
same,"Responder n (%), UAS7 ≤6",Week 5,2 (5.4) n (%)
same,"Imputed non-responder n (%), UAS7 = 0",Week 6,4 (10.8) n (%)
same,"Imputed non-responder n (%), UAS7 ≤6",Week 6,4 (10.8) n (%)
same,"Non-responder n (%), UAS7 = 0",Week 6,36 (97.3) n (%)
same,"Non-responder n (%), UAS7 ≤6",Week 6,34 (91.9) n (%)
same,"OR for rilzabrutinib vs. placebo, UAS7 = 0",Week 6,0.923
same,"RRD (%) for rilzabrutinib vs. placebo, UAS7 = 0",Week 6,−0.2 %
same,"RRD (%) for rilzabrutinib vs. placebo, UAS7 ≤6",Week 6,−7.8%
same,"Responder n (%), UAS7 = 0",Week 6,1 (2.7) n (%)
same,"Responder n (%), UAS7 ≤6",Week 6,3 (8.1) n (%)
same,"Imputed non-responder n (%), UAS7 = 0",Week 7,6 (16.2) n (%)
same,"Imputed non-responder n (%), UAS7 ≤6",Week 7,6 (16.2) n (%)
same,"Non-responder n (%), UAS7 = 0",Week 7,36 (97.3) n (%)
same,"Non-responder n (%), UAS7 ≤6",Week 7,36 (97.3) n (%)
same,"OR for rilzabrutinib vs. placebo, UAS7 = 0",Week 7,1.061
same,"OR for rilzabrutinib vs. placebo, UAS7 ≤6",Week 7,0.249
same,"RRD (%) for rilzabrutinib vs. placebo, UAS7 = 0",Week 7,0.2 %
same,"RRD (%) for rilzabrutinib vs. placebo, UAS7 ≤6",Week 7,−8.3%
same,"Responder n (%), UAS7 = 0",Week 7,1 (2.7) n (%)
same,"Responder n (%), UAS7 ≤6",Week 7,1 (2.7) n (%)
same,"Imputed non-responder n (%), UAS7 = 0",Week 8,7 (18.9) n (%)

# From patent US20260256792A1, “TREATMENT OF CHRONIC SPONTANEOUS URTICARIA BY ADMINISTERING (R)-2-[3-[4-AMINO-3-(2-FLUORO-4-PHENOXY-PHENYL)PYRAZOLO[3,4-D]PYRIMIDIN-1-YL]PIPERIDINE-1-CARBONYL]-4-METHYL-4-[4-(OXETAN-3-YL)PIPERAZIN-1-YL]PENT-2-ENENITRILE” (priority 2023, published 2026)
